What was measured:
[1] = Tissue distribution study in rabbits after oral Panax notoginseng extract with or without Borneol; assay type: in vivo, New Zealand rabbits
Experimental: Frozen plasma and tissue samples were thawed in a water bath at 37°C and were then vortexed followed by centrifuging at 5000 r·min^−1 for 5 min. An aliquot of 1.0 mL of the supernatant from each sample was loaded onto C18 Bond Elute Solid phase extraction (SPE) cartridges (1000 mg, 1 cc reservoir, Varian, Harbor City, CA, USA) pretreated with 2.0 mL hexane, isopropanol, methanol, and water, sequentially. The SPE cartridges were then washed with 1.0 mL water, 20% methanol/water solution, 40% methanol/water solution, and 60% methanol/water solution, sequentially. Finally, analytes were eluted twice with 1.0 mL of 70% methanol/water solution. The eluant was evaporated to dryness under nitrogen. The residues were then reconstituted in 1.0 mL mobile phase. An aliquot of 10 μL was injected into the LC-MS system.
One group of rabbits (n = 18) was orally administered a dose of 3.0 mL·kg^−1 Panax notoginseng extract, while another group of rabbits (n = 18) was orally given 3.0 mL·kg^−1 Panax notoginseng extract combined with Borneol. At 0.5, 1, and 3 h after administration, blood samples were collected from the central ear artery of six rabbits from each group, and the heart, liver, lung, kidney, and brain were immediately removed after animals were sacrificed by decapitation. An accurately weighed amount of tissue (1 g) was collected to be rinsed, dried, minced, and homogenized (400 r·min^−1) in normal saline (1.5 mL). All of the samples were stored at −70°C and were processed prior to analysis with the proposed method as described in Section 2.6.

[2] = system: vinblastine-selected Caco-2 cells; test: Transport studies across Caco-2 monolayers (P app, efflux ratio); assay type: in vitro ADME
Experimental: Medium was replaced every 2-3 days. […] The vinblastine-selected Caco-2 cells were cultivated in the presence of 10 nM vinblastine to induce P-glycoprotein (P-gp) expression. […] Prior to the transport study, cytotoxicity of NGR1, GRg1, GRe, and Borneol toward Caco-2 cells was determined using MTT assays.
In transport studies, vinblastine-selected Caco-2 cells were seeded on polycarbonate filter of transwells for 18–21 days before starting transport study, and the monolayers with the transepithelial electrical resistance (TEER) values greater than 300 Ωcm^2 were used. Caco-2 monolayers were rinsed twice with Hanks' balanced salt solution (HBSS) and preincubated in HBSS at 37°C for 30 min before starting experiments. To start the experiments, 500 μM of NGR1, GRg1, and GRe in final concentrations were added to the donor side with or without 200 μM Borneol and then incubated at 37°C. […] After each sampling, 0.1 mL of HBSS was added to the receiver chamber to maintain a constant volume. All the experiments were performed five times in duplicate. The collected samples were stored at −20°C until HPLC analysis. During the above transport studies, the TEER values were also monitored before and at the end of each experiment. Apparent permeability coefficients (P app) were then calculated according to the following equation: (1) Papp=(dC/dt×V)/(A×C0), where dC/dt is the rate of the test compound appearing in the receiver chamber, V is the volume of the solution in the receiver chamber, A is the cell monolayer surface area, and C 0 is the initial concentration of the test compound added in the donor chamber.
The efflux ratio (Er) was calculated using the following equation: (2) Er=Papp(basolateral-apical)/Papp(apical-basolateral).

Caco-2 cells = test: MTT cytotoxicity assay toward Caco-2 cells; assay type: cell-based; details: chosen for transport study
Experimental: The Caco-2 cells were cultured in Dulbecco's modified Eagle's medium (DMEM) supplemented with 20% foetal bovine serum, 1% nonessential amino acids and penicillin-streptomycin, at 37°C in an atmosphere with a relative humidity of 95% and a CO2 flow of 5%. Medium was replaced every 2-3 days. When the cell monolayer reached 80% confluence, the cells were detached with a solution of 0.02% EDTA and 0.25% trypsin. The vinblastine-selected Caco-2 cells were cultivated in the presence of 10 nM vinblastine to induce P-glycoprotein (P-gp) expression. The culture medium was changed to a fresh medium without vinblastine 24 h before experiments, and the cells were used between passages 25 and 46. Prior to the transport study, cytotoxicity of NGR1, GRg1, GRe, and Borneol toward Caco-2 cells was determined using MTT assays. Noncytotoxic concentrations of 500 μM NGR1, GRg1, GRe, and 200 μM Borneol (dissolved in DMSO) were chosen for transport study.

[3] = 0.5 h, oral Panax notoginseng with Borneol
[4] = 1.0 h, oral Panax notoginseng with Borneol
[5] = 3.0 h, oral Panax notoginseng with Borneol
[6] = Borneol combined with Panax notoginseng, peak levels at 1.0 h
[7] = Caco-2 Model, 500 μM compound, with or without 200 μM Borneol (see label)

Concentration in brain ([1]; 0.5 h, oral Panax notoginseng): 0.65 ± 0.24 µg/g
Concentration in heart ([1]; 0.5 h, oral Panax notoginseng): 3.90 ± 0.53 µg/g
Concentration in kidney ([1]; 0.5 h, oral Panax notoginseng): 2.85 ± 0.45 µg/g
Concentration in liver ([1]; 0.5 h, oral Panax notoginseng): 1.38 ± 0.54 µg/g
Concentration in lung ([1]; 0.5 h, oral Panax notoginseng): 1.77 ± 0.46 µg/g
Concentration in plasma ([1]; 0.5 h, oral Panax notoginseng): 1670 ± 50 ng/mL
Concentration in brain [1, 3]: 4.02 ± 0.46 µg/g
Concentration in heart [1, 3]: 4.68 ± 0.21 µg/g
Concentration in kidney [1, 3]: 3.98 ± 0.12 µg/g
Concentration in liver [1, 3]: 8.24 ± 0.42 µg/g
Concentration in lung [1, 3]: 5.79 ± 0.29 µg/g
Concentration in plasma [1, 3]: 1620 ± 70 ng/mL
Concentration in brain ([1]; 1.0 h, oral Panax notoginseng): 0.81 ± 0.26 µg/g
Concentration in heart ([1]; 1.0 h, oral Panax notoginseng): 4.26 ± 0.27 µg/g
Concentration in kidney ([1]; 1.0 h, oral Panax notoginseng): 2.74 ± 0.33 µg/g
Concentration in liver ([1]; 1.0 h, oral Panax notoginseng): 1.66 ± 0.28 µg/g
Concentration in lung ([1]; 1.0 h, oral Panax notoginseng): 1.82 ± 0.20 µg/g
Concentration in plasma ([1]; 1.0 h, oral Panax notoginseng): 1290 ± 200 ng/mL
Concentration in brain [1, 4]: 5.58 ± 0.68 µg/g
Concentration in heart [1, 4]: 5.55 ± 0.31 µg/g
Concentration in kidney [1, 4]: 3.38 ± 0.34 µg/g
Concentration in liver [1, 4]: 9.29 ± 0.72 µg/g
Concentration in lung [1, 4]: 9.96 ± 0.66 µg/g
Concentration in plasma [1, 4]: 1460 ± 50 ng/mL
Concentration in brain ([1]; 3.0 h, oral Panax notoginseng): 0.48 ± 0.14 µg/g
Concentration in heart ([1]; 3.0 h, oral Panax notoginseng): 3.31 ± 0.32 µg/g
Concentration in kidney ([1]; 3.0 h, oral Panax notoginseng): 1.94 ± 0.24 µg/g
Concentration in liver ([1]; 3.0 h, oral Panax notoginseng): 0.89 ± 0.12 µg/g
Concentration in lung ([1]; 3.0 h, oral Panax notoginseng): 1.51 ± 0.16 µg/g
Concentration in plasma ([1]; 3.0 h, oral Panax notoginseng): 160 ± 60 ng/mL
Concentration in brain [1, 5]: 3.69 ± 0.84 µg/g
Concentration in heart [1, 5]: 4.59 ± 0.52 µg/g
Concentration in kidney [1, 5]: 2.27 ± 0.28 µg/g
Concentration in liver [1, 5]: 6.87 ± 0.61 µg/g
Concentration in lung [1, 5]: 4.56 ± 0.75 µg/g
Concentration in plasma [1, 5]: 490 ± 20 ng/mL
level in kidney, fold higher than the plasma concentrations ([1]; Borneol combined with Panax notoginseng, at 1.0 h): 2.3 fold
level in brain, fold higher than the plasma concentrations [1, 6]: 3.82 fold
level in liver, fold higher than the plasma concentrations [1, 6]: 6.36 fold
level in lung, fold higher than the plasma concentrations [1, 6]: 6.82 fold
increase of P app (apical-to-basolateral) by Borneol ([2]; 200 μM Borneol, Caco-2): 2.9 fold
increase of P app (basolateral-to-apical) by Borneol ([2]; 200 μM Borneol, Caco-2): 2.9 fold
P app (apical to basolateral) [2, 7]: 0.64 ± 0.08 × 10^−7 cm/s
P app (basolateral to apical) [2, 7]: 0.68 ± 0.12 × 10^−7 cm/s
P app values ([2]; Caco-2 monolayers, without Borneol): less than 10^−6 cm/s
substrate of P-gp ([2]; concluded from efflux ratio in vinblastine-selected Caco-2 cells): seemed not to be substrates of P-gp
E r ([2]; efflux ratio P app(basolateral-apical)/P app(apical-basolateral), with or without 200 μM Borneol (see label)): 1.06
SMILES: CC(C)=CCC[C@](C)(O[C@@H]1O[C@H](CO)[C@@H](O)[C@H](O)[C@H]1O)[C@H]1CC[C@]2(C)[C@@H]1[C@H](O)C[C@@H]1[C@@]3(C)CC[C@H](O)C(C)(C)[C@@H]3[C@@H](O[C@@H]3O[C@H](CO)[C@@H](O)[C@H](O)[C@H]3O[C@@H]3OC[C@@H](O)[C@H](O)[C@H]3O)C[C@]12C [NGR1, notoginsenoside R1]
Noncytotoxic concentration (Caco-2 cells): 500 µM

Reference: paper PMC3626250, “Effects of Borneol on Pharmacokinetics and Tissue Distribution of Notoginsenoside R1 and Ginsenosides Rg1 and Re in Panax notoginseng in Rabbits” (Journal of Analytical Methods in Chemistry, 2013)
